Paper PMC8691691 (ACS Chemical Neuroscience, 2021)

What was measured:
[1] = test system: thermal, mechanical, and chemical stimulations; settings: rat acute pain model; cited from earlier work
[2] = biological target: T1, GlyT2 S481G mutant (Rattus norvegicus, UniProt P58295, S481G); assay: [3H]glycine transport by GlyT2 mutant in COS7 cells; format: cell-based
T1 construct: expressed in transfected cells; host or cells: COS7
T1 sequence (P58295 1-799 S481G): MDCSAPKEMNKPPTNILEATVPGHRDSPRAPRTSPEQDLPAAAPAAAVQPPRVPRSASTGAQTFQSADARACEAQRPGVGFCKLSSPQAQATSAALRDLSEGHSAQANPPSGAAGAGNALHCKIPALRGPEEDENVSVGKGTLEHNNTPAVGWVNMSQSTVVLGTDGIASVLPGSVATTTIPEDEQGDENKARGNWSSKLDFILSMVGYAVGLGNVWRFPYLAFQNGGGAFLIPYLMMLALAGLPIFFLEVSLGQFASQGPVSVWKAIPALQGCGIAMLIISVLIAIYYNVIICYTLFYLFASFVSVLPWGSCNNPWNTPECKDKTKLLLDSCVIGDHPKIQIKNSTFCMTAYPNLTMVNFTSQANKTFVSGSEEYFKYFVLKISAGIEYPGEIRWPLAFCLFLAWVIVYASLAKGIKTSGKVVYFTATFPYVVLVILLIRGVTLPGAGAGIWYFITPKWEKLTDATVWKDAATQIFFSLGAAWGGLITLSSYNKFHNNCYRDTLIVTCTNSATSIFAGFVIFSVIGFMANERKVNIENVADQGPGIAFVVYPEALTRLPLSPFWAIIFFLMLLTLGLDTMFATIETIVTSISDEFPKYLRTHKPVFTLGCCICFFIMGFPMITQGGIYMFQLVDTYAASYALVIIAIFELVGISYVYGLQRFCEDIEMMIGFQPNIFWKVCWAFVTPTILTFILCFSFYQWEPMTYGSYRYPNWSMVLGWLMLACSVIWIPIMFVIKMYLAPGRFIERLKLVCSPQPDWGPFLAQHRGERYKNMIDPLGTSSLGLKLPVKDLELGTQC

[3] = biological target: T2, GlyT1 (Rattus norvegicus, UniProt P28572); assay: [3H]glycine transport by recombinant GlyT1 expressed in COS7 cells; format: cell-based; settings: 10 μM glycine
T2 construct: expressed in transfected cells; host or cells: COS7
T2 sequence (P28572 1-638): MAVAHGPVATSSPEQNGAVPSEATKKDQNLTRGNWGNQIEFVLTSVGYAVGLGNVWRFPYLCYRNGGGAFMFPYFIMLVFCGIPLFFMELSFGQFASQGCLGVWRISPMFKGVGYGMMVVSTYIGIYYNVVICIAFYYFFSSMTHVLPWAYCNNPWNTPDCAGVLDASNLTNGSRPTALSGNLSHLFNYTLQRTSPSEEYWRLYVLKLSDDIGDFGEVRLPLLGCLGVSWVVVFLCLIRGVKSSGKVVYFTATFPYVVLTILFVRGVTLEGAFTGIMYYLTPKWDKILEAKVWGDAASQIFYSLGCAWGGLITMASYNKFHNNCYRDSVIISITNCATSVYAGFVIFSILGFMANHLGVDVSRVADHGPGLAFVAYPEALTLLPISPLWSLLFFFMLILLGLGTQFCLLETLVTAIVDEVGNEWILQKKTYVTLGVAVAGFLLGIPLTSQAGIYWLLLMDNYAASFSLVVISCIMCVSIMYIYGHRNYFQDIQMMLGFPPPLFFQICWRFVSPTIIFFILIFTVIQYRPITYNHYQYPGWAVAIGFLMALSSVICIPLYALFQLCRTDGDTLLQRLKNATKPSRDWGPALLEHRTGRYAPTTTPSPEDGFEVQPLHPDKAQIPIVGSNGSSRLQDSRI
Procedure: Substitution mutants were generated with the QuikChange II Site-Directed Mutagenesis kit (Agilent Technologies, Santa Clara, CA, USA), using rGlyT2 or rGlyT1 subcloned in pCDNA3.[47] The complete coding region of all of the constructs was sequenced to verify that only the desired mutation had been introduced. […] COS7 cells were grown and transfected using Turbofect Transfection Reagent (Thermo Fisher Scientific, Waltham, MA, USA), following the manufacturer’s protocol (2 μL reagent/μg of DNA). Cells were incubated for 48 h at 37 °C until used.
At the end of the desired time (usually 10 min), reactions were washed and terminated by aspiration. […] A nonlinear curve fitting method was used to obtain IC50 values using Graphpad Prism software, version 6.0, Graphpad, San Diego, CA, USA.

[4] = test system: GlyT2; settings: cited from earlier work
[5] = due to its physiological irreversibility; cited from earlier work

| IC50 ([2]; read-out: IC50 (Table S1)) [nM] | IC50, inhibition of glycine transport by GlyT1 [3] | SMILES | effect on thermal, mechanical, and chemical stimulations [1] | effect of mutation on inhibition of glycine transport ([2]; S481G, 1 μM inhibitor, 25 μM glycine) | reversibility of GlyT2 inhibition [4] | toxicity in animals [5] |
| --- | --- | --- | --- | --- | --- | --- |
| 75 ± 8 | low μM range | N[C@@H](COC(c1cccc(F)c1)c1ccccc1OCc1ccccc1)C(=O)O (stereo partly drawn) [ALX1393] | antinociceptive effect | more reduced inhibition potency for ALX1393 than for ORG25543 |  |  |
|  |  | COc1cc(C(=O)NCC2(N(C)C)CCCC2)cc(OC)c1OCc1ccccc1 [ORG25543, N-[[1-(dimethylamino)cyclopentyl]methyl]-3,5-dimethoxy-4-(phenylmethoxy)benzamide] |  |  | irreversible GlyT2 inhibitor | generates toxicity in animals |
